{"source": "patent US9801851B2", "about": "“Methods and compositions for the treatment of BCR-ABL positive lymphoblastic leukemias” (ST. JUDE CHILDREN'S RESEARCH HOSPITAL, priority 2012, dated 2017)", "key": {"[1]": {"experiment": "In vivo toxicity studies of DHA by oral gavage", "conditions": "repeated single doses of 300 mg/kg, 5 days/week", "procedure": "In toxicity studies, DHA was ranged up to 300 mg/kg as a single or split dose for 5 days/week over a six week time period. […] During therapeutic studies, animal weights were monitored daily to ensure no significant body weight reductions."}, "Arf−/− BCR-ABL^WT LICs [2]": {"test_system": "Arf−/− BCR-ABL^WT LICs", "assay_type": "in vivo"}, "[3]": {"test_system": "human Ph+ ALL SUPB15 cells", "experiment": "Cell viability, MTS assay, 72 h", "assay_type": "cell-based", "procedure": "Drug delivery to cell suspensions was accomplished with a V & P Scientific (San Diego, Calif.) pin. For murine-human comparisons, human SUP-B15 Ph+ ALL cells (DSMZ cell culture collection, Germany) in McCoy's media containing 20% fetal calf serum and penicillin/streptomycin (Invitrogen, Carlsbad, Calif.), were plated at 12,500 cells in 25 μL per well in black clear-bottom 384-well microtiter plates. Drugs were transferred by pin-transfer. After 72 h incubation at 37° C., 20% (by volume) MTS assay reagent (CellTiter 96 Aqueous One Solution, Promega, Madison, Wis.) was added, microtiter plates were incubated for 75 min at 37° C., and read colorimetrically at 490 nm."}, "Arf−/− BCR-ABL^WT LICs [4]": {"test_system": "Arf−/− BCR-ABL^WT LICs", "experiment": "LIC growth inhibition, CellTiter-Glo (CTG) assay, 72 h", "assay_type": "cell-based, murine", "conditions": "for effect of cytokine on dasatinib potency: 72-h dasatinib exposure in presence of increasing concentrations of cytokine", "source_text": "Replication-defective mouse stem cell virus (MSCV) retroviral vectors co-expressing either the wild-type (WT) allele of human p185^BCR-ABL or mutant BCR-ABL alleles p185^T315I or p185^F317L, and either green fluorescent protein (GFP) or luciferase, were packaged into replication-incompetent ecotropic virions. Whole bone marrow cell suspensions from Arf^−/− young adult mice were infected to produce Arf^−/− p185+ pre-B cells. […] Prior to use in any assays, Arf^−/− p185^WT and Arf^−/− p185^T315I pre-B cells (BCR-ABL^WT leukemia initiating cells (LICs) and BCR-ABL^T315I LICs, respectively) were thawed and allowed to recover in BCM10 for 3 days.\nThe maximum dimethyl sulfoxide (DMSO) concentration tolerated by LICs in culture was determined to be 0.2% (by volume) and was maintained at ≦0.1% (by volume) in all subsequent work. […] Both cell types were plated at multiple cell dilutions (n=3 for each condition, time=0 h) in 6-well plates and serially followed daily for 5 days to evaluate absolute viable cell count, total viability, doubling times, and total population doublings, using the Beckman Coulter cell counter (trypan blue staining) and fluorescence-activated cell sorting (FACS) analysis in parallel. […] FACS cell-cycle analysis confirmed that a population doubling time less than 14 h was sufficient to maintain cells in exponential growth (>50% cells in S-phase).\nAfter a 72 h drug challenge, LIC growth was measured by the 3 cellular readouts: CellTiter-Glo® (CTG) assay (ATP content), MTS (3-(4,5-dimethylthiazol-2-yl)-5-(3-carboxymethoxyphenyl)-2-(4-sulfophenyl)-2H-tetrazolium) assay (viability), and high-throughput flow cytometry (total viability and viable cell counts by DAPI exclusion). Measured assay readouts at various drug concentrations (x-axis) were normalized to DMSO-treated LICs and graphed (+/−sd) on y-axis."}}, "note": "Where two headings read alike, the source gives them in different places."}
{"molecule": "C[C@@H]1CCC2[C@@H](C)[C@@H](O)O[C@@H]3OC4(C)CC[C@@H]1[C@@]23OO4", "note": "(some centres unmarked) [DHA, dihydroartemisinin]", "values": [{"measurement": "toxicity findings", "setting": "[1]", "result": "no significant weight loss, lethargy, seizures or deaths"}, {"measurement": "efficacy alone in high-burden leukemia model", "setting": "Arf−/− BCR-ABL^WT LICs [2]; 200 mg/kg", "result": "completely ineffective"}, {"measurement": "efficacy alone in high-burden leukemia model", "setting": "Arf−/− BCR-ABL^WT LICs [2]; 300 mg/kg", "result": "poorly effective"}, {"measurement": "survival benefit, monotherapy", "setting": "Arf−/− BCR-ABL^WT LICs [2]; IL7+/+ host mice, low-burden 2×10^3 LICs, 100, 200, 300 mg/kg once daily 5 days/week from day 3", "result": "dose-dependent survival benefit"}, {"measurement": "killing of human Ph+ ALL cell line", "setting": "[3]", "result": "actively kill"}]}
{"molecule": "C[C@@H]1CC[C@H]2[C@@H](C)C(=O)O[C@@H]3O[C@@]4(C)CC[C@@H]1[C@]32OO4", "note": "[artemisinin]", "values": [{"measurement": "anti-LIC potency", "setting": "Arf−/− BCR-ABL^WT LICs [4]; BCR-ABL^WT and BCR-ABL^T315I LICs, 72 h, absence or presence of 1 ng/mL murine IL7", "result": "lower than that of artesunate or DHA"}]}
{"molecule": "C[C@H]1[C@H](OC(=O)CCC(=O)O)O[C@@H]2O[C@@]3(C)CC[C@H]4[C@H](C)CC[C@@H]1[C@@]24OO3", "note": "[artesunate]", "values": [{"measurement": "killing of human Ph+ ALL cell line", "setting": "[3]", "result": "actively kill"}]}
{"molecule": "IL4: recombinant murine hematopoietic cytokine", "values": [{"measurement": "effect of cytokine on dasatinib potency", "setting": "Arf−/− BCR-ABL^WT LICs [4]", "result": "confer some resistance"}]}
{"molecule": "TGF-β", "values": [{"measurement": "effect of cytokine on dasatinib potency", "setting": "Arf−/− BCR-ABL^WT LICs [4]", "result": "enhance dasatinib activity"}]}
{"molecule": "TSLP: thymic stromal lymphopoietin, IL7-like cytokine", "values": [{"measurement": "effect of cytokine on dasatinib potency", "setting": "Arf−/− BCR-ABL^WT LICs [4]", "result": "confer some resistance"}]}
{"molecule": "IL7: recombinant murine cytokine, leukemia-microenvironment host factor (protein, UniProt P10168 26-154, looked up) Interleukin-7: ECHIKDKEGKAYESVLMISIDELDKMTGTDSNCPNNEPNFFRKHVCDDTKEAAFLNRAARKLKQFLKMNISEEFNVHLLTVSQGTQTLVNCTSKEEKNVKEQKKNDACFLKRLLREIKTCWNKILKGSI", "values": [{"measurement": "effect of cytokine on dasatinib potency", "setting": "Arf−/− BCR-ABL^WT LICs [4]", "result": "strongest protection against dasatinib"}]}
